Experimental findings from ChEMBL document CHEMBL2390951, “Impact of fluorination on proteolytic stability of peptides in human blood plasma” (Bioorg Med Chem, 2013) are described below.

Molecules are shown by their SMILES. Non-standard residues stand in square brackets, D forms with d. Residues, ends and D or L forms follow the SMILES beside them. Abu(4,4,4-F3) = N[C@@H](CC(F)(F)F)C(=O)O; Abu(4,4-F2) = N[C@@H](CC(F)F)C(=O)O; 4Abz = Nc1ccc(C(=O)O)cc1; Abu = CC[C@H](N)C(=O)O Bounds are passed on as bounds.

System in one series: not listed separately
In words: Proteolytic stability in Tris-HCl buffer assessed as compound degradation at 20 umol/ml after 2 hrs by RP-HPLC analysis in presence of elastase relative to control. The class given is ADME. Conditions: buffer, 2 h.
On to `CC[C@H](NC(=O)[C@H](C)NC(=O)[C@H](Cc1ccccc1)NC(=O)[C@H](C)NC(=O)[C@H](C)NC(=O)[C@H](CCCCN)NC(=O)c1ccc(N)cc1)C(=O)N[C@@H](C)C(=O)N[C@@H](C)C(=O)N[C@@H](CCCCN)C(=O)O` (H-[4Abz]KAAFA[Abu]AAK-OH), for which the Stability result is given as “Stable”. `C[C@H](NC(=O)[C@H](C)NC(=O)[C@H](CC(F)F)NC(=O)[C@H](C)NC(=O)[C@H](Cc1ccccc1)NC(=O)[C@H](C)NC(=O)[C@H](C)NC(=O)[C@H](CCCCN)NC(=O)c1ccc(N)cc1)C(=O)N[C@@H](CCCCN)C(=O)O` (H-[4Abz]KAAFA[Abu(4,4-F2)]AAK-OH) [listing 1 of 2 here]: the Stability entry is “Stable”. Consider `CC[C@H](NC(=O)[C@H](Cc1ccccc1)NC(=O)[C@H](C)NC(=O)[C@H](C)NC(=O)[C@H](CCCCN)NC(=O)c1ccc(N)cc1)C(=O)N[C@@H](C)C(=O)N[C@@H](C)C(=O)N[C@@H](C)C(=O)N[C@@H](CCCCN)C(=O)O` (H-[4Abz]KAAF[Abu]AAAK-OH), for which the Stability result was “Stable”. `C[C@H](NC(=O)[C@H](C)NC(=O)[C@H](CC(F)(F)F)NC(=O)[C@H](Cc1ccccc1)NC(=O)[C@H](C)NC(=O)[C@H](C)NC(=O)[C@H](CCCCN)NC(=O)c1ccc(N)cc1)C(=O)N[C@@H](C)C(=O)N[C@@H](CCCCN)C(=O)O` (H-[4Abz]KAAF[Abu(4,4,4-F3)]AAAK-OH): the Stability result was “Stable”. Consider `C[C@H](NC(=O)[C@H](C)NC(=O)[C@H](CC(F)(F)F)NC(=O)[C@H](C)NC(=O)[C@H](Cc1ccccc1)NC(=O)[C@H](C)NC(=O)[C@H](C)NC(=O)[C@H](CCCCN)NC(=O)c1ccc(N)cc1)C(=O)N[C@@H](CCCCN)C(=O)O` (H-[4Abz]KAAFA[Abu(4,4,4-F3)]AAK-OH), for which the Stability result is “Unstable”.

The same series, now with this note: elastase in Tris-HCl buffer; read-out: Drug degradation.
Regarding `C[C@H](NC(=O)[C@H](C)NC(=O)[C@H](C)NC(=O)[C@H](Cc1ccccc1)NC(=O)[C@H](CC(F)F)NC(=O)[C@H](C)NC(=O)[C@H](CCCCN)NC(=O)c1ccc(N)cc1)C(=O)N[C@@H](C)C(=O)N[C@@H](CCCCN)C(=O)O` (H-[4Abz]KA[Abu(4,4-F2)]FAAAAK-OH), the metabolised at 2 h, 20 umol/ml is at most 35%. With `C[C@H](NC(=O)[C@H](C)NC(=O)[C@H](CC(F)F)NC(=O)[C@H](Cc1ccccc1)NC(=O)[C@H](C)NC(=O)[C@H](C)NC(=O)[C@H](CCCCN)NC(=O)c1ccc(N)cc1)C(=O)N[C@@H](C)C(=O)N[C@@H](CCCCN)C(=O)O` (H-[4Abz]KAAF[Abu(4,4-F2)]AAAK-OH), the metabolised at 2 h, 20 umol/ml is at most 35%.

System in a further series: not listed separately
The experiment in a line: (§1) Proteolytic stability in human plasma assessed as compound degradation at 1:3 compound to plasma ratio after 2 hrs by RP-HPLC analysis relative to control. Conditions: read-out: Drug degradation. The class given is ADME, cell-free.
Take `C[C@H](NC(=O)[C@H](C)NC(=O)[C@H](CC(F)F)NC(=O)[C@H](C)NC(=O)[C@H](Cc1ccccc1)NC(=O)[C@H](C)NC(=O)[C@H](C)NC(=O)[C@H](CCCCN)NC(=O)c1ccc(N)cc1)C(=O)N[C@@H](CCCCN)C(=O)O` (H-[4Abz]KAAFA[Abu(4,4-F2)]AAK-OH) [listing 2 of 2 here]: the metabolised at 2 h was at most 35%.

In a further series the test system is Plasma. The series is described as §1. The class given is ADME, cell-free. Conditions: 2 h.
Take `C[C@H](NC(=O)[C@H](C)NC(=O)[C@H](CC(F)(F)F)NC(=O)[C@H](C)NC(=O)[C@H](Cc1ccccc1)NC(=O)[C@H](C)NC(=O)[C@H](C)NC(=O)[C@H](CCCCN)NC(=O)c1ccc(N)cc1)C(=O)N[C@@H](CCCCN)C(=O)O.O=C(O)C(F)(F)F` (H-[4Abz]KAAFA[Abu(4,4,4-F3)]AAK-OH): the Stability entry is given as “Unstable”. Same read-out and setting: the same measure for `CC[C@H](NC(=O)[C@H](C)NC(=O)[C@H](CCCCN)NC(=O)c1ccc(N)cc1)C(=O)N[C@@H](Cc1ccccc1)C(=O)N[C@@H](C)C(=O)N[C@@H](C)C(=O)N[C@@H](C)C(=O)N[C@@H](C)C(=O)N[C@@H](CCCCN)C(=O)O.O=C(O)C(F)(F)F` (H-[4Abz]KA[Abu]FAAAAK-OH): “Stable”; for `CC[C@H](NC(=O)[C@H](C)NC(=O)[C@H](Cc1ccccc1)NC(=O)[C@H](C)NC(=O)[C@H](C)NC(=O)[C@H](CCCCN)NC(=O)c1ccc(N)cc1)C(=O)N[C@@H](C)C(=O)N[C@@H](C)C(=O)N[C@@H](CCCCN)C(=O)O.O=C(O)C(F)(F)F` (H-[4Abz]KAAFA[Abu]AAK-OH): “Stable”. As to `C[C@H](NC(=O)[C@H](C)NC(=O)[C@H](CC(F)(F)F)NC(=O)[C@H](Cc1ccccc1)NC(=O)[C@H](C)NC(=O)[C@H](C)NC(=O)[C@H](CCCCN)NC(=O)c1ccc(N)cc1)C(=O)N[C@@H](C)C(=O)N[C@@H](CCCCN)C(=O)O.O=C(O)C(F)(F)F` (H-[4Abz]KAAF[Abu(4,4,4-F3)]AAAK-OH), the Stability result is “Stable”.
